Data set [1] can be described thus: Stability in Sprague-Dawley rat plasma assessed as half life at 1000 ng/ml measured up to 48 hrs under shaking condition by LC-MS/MS analysis. The format is ADME, cell-free.
In another data set the target is Albumin (Homo sapiens, UniProt P02768). As to the kind of experiment: Binding affinity to human serum albumin assessed as retention factor by HPAC method. It counts as ADME.
In data set [2] the test system is Mus musculus. As to the kind of experiment: Hypoglycemic activity in non-fasted db/db […] mouse assessed as reduction in blood glucose level at 25 nmol/kg, ip dosed 30 mins before glucose challenge measured up to 120 mins by OGTT method. The format is functional, organism-based.
Data set [3] has as its target Glucagon-like peptide 1 receptor (Homo sapiens, UniProt P43220). Description: Agonist activity at human GLP-1R expressed in HEK293 cells assessed as stimulation of cAMP accumulation incubated for 60 mins by HTRF assay. The format is functional, cell-based. A general note: cAMP levels reflect the balance of adenylyl cyclase and phosphodiesterase activity.
For data set [4], the system named is Mus musculus. As to the kind of experiment: Hypoglycemic activity in 12 hrs fasted ICR mouse assessed as reduction in blood glucose level at 25 nmol/kg, ip dosed 30 mins before glucose challenge measured up to 120 mins by OGTT method. It counts as functional, organism-based. Particulars: time 150.0 min.
The nature of data set [5]: Tmax in Sprague-Dawley rat at 50 nmol/kg, sc measured up to 24 hrs by LC-MS/MS analysis. The format is ADME, organism-based. The conditions noted are these: in vivo.
The nature of data set [6]: Half life in Sprague-Dawley rat at 50 nmol/kg, sc measured up to 24 hrs by LC-MS/MS analysis. The format is ADME, organism-based. The conditions noted are these: in vivo.
Data set [7] in a line: Stability in Sprague-Dawley rat plasma at 1000 ng/ml measured up to 48 hrs under shaking condition by LC-MS/MS analysis. It counts as ADME, cell-free.

Calls of active or inactive are those of the source. No cut-off for these calls is given here. Starred links: 1 amine or outer side, 2 acyl side, 3 side chain; linkers in the order of their positions; H or OH if unused. Positions of bridges follow the written chain, without caps; N, C: chain ends. Non-standard residues stand in square brackets, D forms with d. Residues, ends and D or L forms follow the SMILES beside them. Groups on a side chain read outwards from the residue. Chains are numbered I, II in the order given. ξ: configuration not given here. *: point of attachment. X3 = Cc1ccc(C)c(OCCCC(C)(C)C(=O)OCC(=O)NCCCCCC(=O)N[C@@H](CCC(=O)NCCCC[C@H](NO[*:1])C(=O)[*:2])C(=O)O)c1; X1 = Cc1ccc(C)c(OCCCC(C)(C)C(=O)OCC(=O)NCCCCCCCCCC(NC(=O)COC(=O)C(C)(C)CCCOc2cc(C)ccc2C)C(=O)*)c1; X2 = Cc1ccc(C)c(OCCCC(C)(C)C(=O)OCC(=O)NCCCCC(NC(=O)COC(=O)C(C)(C)CCCOc2cc(C)ccc2C)C(=O)*)c1; Glycoloyl(O-gemfibrozoyl) = Cc1ccc(C)c(OCCCC(C)(C)C(=O)OCC(=O)*)c1; γGlu = O=C(O)[C@H](CCC(=O)[*:2])N[*:1]; Thr(3ξ) = CC(O)[C@H](N)C(=O)O; Aun = NCCCCCCCCCCC(=O)O; ξK = NCCCCC(N)C(=O)O; Ahx = NCCCCCC(=O)O

Experimental findings from ChEMBL document CHEMBL4765314, “Rational design and biological evaluation of gemfibrozil modified Xenopus GLP-1 derivatives as long-acting hypoglycemic agents” (Eur J Med Chem, 2020) are described below.

Albumin, sequence (P02768 whole entry): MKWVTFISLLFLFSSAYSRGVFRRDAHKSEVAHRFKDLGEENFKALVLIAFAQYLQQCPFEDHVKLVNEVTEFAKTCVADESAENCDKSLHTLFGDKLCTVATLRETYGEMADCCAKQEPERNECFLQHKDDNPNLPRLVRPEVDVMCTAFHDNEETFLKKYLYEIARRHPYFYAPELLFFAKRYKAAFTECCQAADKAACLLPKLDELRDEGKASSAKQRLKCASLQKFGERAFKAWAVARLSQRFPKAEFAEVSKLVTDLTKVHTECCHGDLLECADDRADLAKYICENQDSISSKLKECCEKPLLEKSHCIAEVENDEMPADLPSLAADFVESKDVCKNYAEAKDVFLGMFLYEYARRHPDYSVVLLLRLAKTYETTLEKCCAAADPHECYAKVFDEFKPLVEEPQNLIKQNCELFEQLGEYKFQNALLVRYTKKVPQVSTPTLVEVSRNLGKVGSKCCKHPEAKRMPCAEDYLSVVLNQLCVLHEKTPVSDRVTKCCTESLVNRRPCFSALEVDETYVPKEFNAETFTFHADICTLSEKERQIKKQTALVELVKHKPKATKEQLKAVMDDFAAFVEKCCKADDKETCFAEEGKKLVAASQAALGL
Glucagon-like peptide 1 receptor, sequence (P43220 whole entry): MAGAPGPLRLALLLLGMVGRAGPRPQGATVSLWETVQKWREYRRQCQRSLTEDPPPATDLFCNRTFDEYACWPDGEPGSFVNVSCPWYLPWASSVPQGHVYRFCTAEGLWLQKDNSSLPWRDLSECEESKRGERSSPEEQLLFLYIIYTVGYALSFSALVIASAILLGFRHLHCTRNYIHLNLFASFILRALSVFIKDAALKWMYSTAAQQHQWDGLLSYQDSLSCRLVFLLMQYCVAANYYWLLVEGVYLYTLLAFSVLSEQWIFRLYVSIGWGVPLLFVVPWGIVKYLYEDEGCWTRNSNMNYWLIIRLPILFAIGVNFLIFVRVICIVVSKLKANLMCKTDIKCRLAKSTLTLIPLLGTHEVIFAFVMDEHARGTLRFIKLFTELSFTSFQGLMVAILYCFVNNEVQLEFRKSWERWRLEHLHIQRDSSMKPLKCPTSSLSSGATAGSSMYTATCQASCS

`CC[C@H](C)[C@H](NC(=O)[C@H](CC(C)C)NC(=O)[C@H](Cc1c[nH]c2ccccc12)NC(=O)[C@H](CCC(=O)O)NC(=O)[C@@H](NC(=O)[C@H](Cc1ccccc1)NC(=O)[C@H](CCC(=O)O)NC(=O)C(CCCCNC(=O)CC[C@H](NC(=O)C(CCCCNC(=O)COC(=O)C(C)(C)CCCOc1cc(C)ccc1C)NC(=O)COC(=O)C(C)(C)CCCOc1cc(C)ccc1C)C(=O)O)NC(=O)[C@H](C)NC(=O)[C@H](C)NC(=O)[C@H](CCC(=O)O)NC(=O)[C@H](CCC(=O)O)NC(=O)[C@H](CCC(=O)O)NC(=O)[C@H](CC(C)C)NC(=O)[C@H](Cc1ccc(O)cc1)NC(=O)[C@H](CCC(=O)O)NC(=O)[C@@H](NC(=O)[C@@H](NC(=O)[C@H](CC(=O)O)NC(=O)[C@H](CC(N)=O)NC(=O)[C@@H](NC(=O)[C@H](Cc1ccc(O)cc1)NC(=O)[C@@H](NC(=O)CNC(=O)[C@H](CCC(=O)O)NC(=O)CNC(=O)[C@@H](N)Cc1cnc[nH]1)[C@@H](C)O)[C@@H](C)O)C(C)C)[C@@H](C)O)[C@@H](C)CC)C(=O)N[C@@H](CCCCN)C(=O)NCC(=O)N[C@@H](CCCCN)C(=O)N1CCC[C@H]1C(=O)N[C@@H](CO)C(=O)N[C@@H](CO)C(=O)NCC(=O)N[C@@H](C)C(=O)N1CCC[C@H]1C(=O)N1CCC[C@H]1C(=O)N1CCC[C@H]1C(=O)N[C@@H](C)C(=O)O` (stereo partly specified) (H-HGEGTYTNDVTEYLEEEAA[ξK]([γGlu-X2])EFIEWLIKGKPSSGAPPPA-OH): the half-life at 1000 ng/ml in data set [1] was 30.4 h. In addition, the K at Albumin was 11.8. For the same compound, the outcome in the data set on Mus musculus [2] and with Mus musculus [4] was Active. In addition, the EC50 in data set [3] amounted to 0.11 nM.
With `CC[C@H](C)[C@H](NC(=O)[C@H](CC(C)C)NC(=O)[C@H](Cc1c[nH]c2ccccc12)NC(=O)[C@H](CCC(=O)O)NC(=O)[C@@H](NC(=O)[C@H](Cc1ccccc1)NC(=O)[C@H](CCC(=O)O)NC(=O)[C@H](CCCCNC(=O)CC[C@H](NC(=O)CCCCCNC(=O)COC(=O)C(C)(C)CCCOc1cc(C)ccc1C)C(=O)O)NC(=O)[C@H](C)NC(=O)[C@H](C)NC(=O)[C@H](CCC(=O)O)NC(=O)[C@H](CCC(=O)O)NC(=O)[C@H](CCC(=O)O)NC(=O)[C@H](CC(C)C)NC(=O)[C@H](Cc1ccc(O)cc1)NC(=O)[C@H](CCC(=O)O)NC(=O)[C@@H](NC(=O)[C@@H](NC(=O)[C@H](CC(=O)O)NC(=O)[C@H](CC(N)=O)NC(=O)[C@@H](NC(=O)[C@H](Cc1ccc(O)cc1)NC(=O)[C@@H](NC(=O)CNC(=O)[C@H](CCC(=O)O)NC(=O)CNC(=O)[C@@H](N)Cc1cnc[nH]1)[C@@H](C)O)[C@@H](C)O)C(C)C)C(C)O)[C@@H](C)CC)C(=O)N[C@@H](CCCCN)C(=O)NCC(=O)N[C@@H](CCCCN)C(=O)N1CCC[C@H]1C(=O)N[C@@H](CO)C(=O)N[C@@H](CO)C(=O)NCC(=O)N[C@@H](C)C(=O)N1CCC[C@H]1C(=O)N1CCC[C@H]1C(=O)N1CCC[C@H]1C(=O)N[C@@H](CO)C(=O)O` (stereo partly drawn) (H-HGEGTYTNDV[Thr(3ξ)]EYLEEEAAK([γGlu-Ahx-Glycoloyl(O-gemfibrozoyl)])EFIEWLIKGKPSSGAPPPS-OH), the half-life at 1000 ng/ml in data set [1] was 17.2 h. At Albumin, the K is given as 6.8. Moreover, the EC50 in data set [3] was 0.083 nM. The result in the data set on Mus musculus [4] was Active.
`CC[C@H](C)[C@H](NC(=O)[C@H](CC(C)C)NC(=O)[C@H](Cc1c[nH]c2ccccc12)NC(=O)[C@H](CCC(=O)O)NC(=O)[C@@H](NC(=O)[C@H](Cc1ccccc1)NC(=O)[C@H](CCC(=O)O)NC(=O)[C@H](CCCCNC(=O)CC[C@H](NC(=O)CCCCCCCCCCNC(=O)COC(=O)C(C)(C)CCCOc1cc(C)ccc1C)C(=O)O)NC(=O)[C@H](C)NC(=O)[C@H](C)NC(=O)[C@H](CCC(=O)O)NC(=O)[C@H](CCC(=O)O)NC(=O)[C@H](CCC(=O)O)NC(=O)[C@H](CC(C)C)NC(=O)[C@H](Cc1ccc(O)cc1)NC(=O)[C@H](CCC(=O)O)NC(=O)[C@@H](NC(=O)[C@@H](NC(=O)[C@H](CC(=O)O)NC(=O)[C@H](CC(N)=O)NC(=O)[C@@H](NC(=O)[C@H](Cc1ccc(O)cc1)NC(=O)[C@@H](NC(=O)CNC(=O)[C@H](CCC(=O)O)NC(=O)CNC(=O)[C@@H](N)Cc1cnc[nH]1)C(C)O)C(C)O)C(C)C)[C@@H](C)O)[C@@H](C)CC)C(=O)N[C@@H](CCCCN)C(=O)NCC(=O)N[C@@H](CCCCN)C(=O)N1CCC[C@H]1C(=O)N[C@@H](CO)C(=O)N[C@@H](CO)C(=O)NCC(=O)N[C@@H](C)C(=O)N1CCC[C@H]1C(=O)N1CCC[C@H]1C(=O)N1CCC[C@H]1C(=O)N[C@@H](CO)C(=O)O` (stereo partly drawn) (H-HGEG[Thr(3ξ)]Y[Thr(3ξ)]NDVTEYLEEEAAK([γGlu-Aun-Glycoloyl(O-gemfibrozoyl)])EFIEWLIKGKPSSGAPPPS-OH): in data set [1], the half-life at 1000 ng/ml was 21.4 h. On Albumin, the K was found to be 7.6. Further, the EC50 in data set [3] worked out at 0.14 nM. Besides, in data set [5], the Tmax worked out at 2.7 h. Further, the half-life in data set [6] is 3.7 h. In addition, the outcome with Mus musculus [4] was Active.
In the case of `CC[C@H](C)[C@H](NC(=O)[C@H](CC(C)C)NC(=O)[C@H](Cc1c[nH]c2ccccc12)NC(=O)[C@H](CCC(=O)O)NC(=O)[C@@H](NC(=O)[C@H](Cc1ccccc1)NC(=O)[C@H](CCC(=O)O)NC(=O)[C@H](CCCCNC(=O)CC[C@H](NC(=O)CCCCCNC(=O)COC(=O)C(C)(C)CCCOc1cc(C)ccc1C)C(=O)O)NOC(=O)[C@H](C)NC(=O)[C@H](C)NC(=O)[C@H](CCC(=O)O)NC(=O)[C@H](CCC(=O)O)NC(=O)[C@H](CCC(=O)O)NC(=O)[C@H](CC(C)C)NC(=O)[C@H](Cc1ccc(O)cc1)NC(=O)[C@H](CCC(=O)O)NC(=O)[C@@H](NC(=O)[C@@H](NC(=O)[C@H](CC(=O)O)NC(=O)[C@H](CC(N)=O)NC(=O)[C@@H](NC(=O)[C@H](Cc1ccc(O)cc1)NC(=O)[C@@H](NC(=O)CNC(=O)[C@H](CCC(=O)O)NC(=O)CNC(=O)[C@@H](N)Cc1cnc[nH]1)[C@@H](C)O)[C@@H](C)O)C(C)C)[C@@H](C)O)[C@@H](C)CC)C(=O)N[C@@H](CCCCN)C(=O)NCC(=O)N[C@@H](CCCCN)C(=O)O` (I: H-HGEGTYTNDVTEYLEEEAA / II: EFIEWLIKGK-OH; linker I:C-II:N via X3), in data set [1], the half-life at 1000 ng/ml was 14.2 h. Besides, in data set [3], the EC50 was determined as 0.093 nM. Also, the Stabilty entry in data set [7] was “Stable”. Also, the result with Mus musculus [4] was Active.
As for “H-HGEGTYTNDVTEYLEEEAAK([γGlu-Aun-Glycoloyl(O-gemfibrozoyl)])EFIEWLIKGKPSSGAPPSKKKKKK-OH”, the half-life at 1000 ng/ml in data set [1] is 20.1 h. At Albumin, the K is 7.3. Moreover, the EC50 in data set [3] is 0.11 nM. For the same compound, the outcome with Mus musculus [4] was Active.
Consider “H-HGEGTYTNDVTEYLEEEAAK([γGlu-X1])EFIEWLIKGKPSSGAPPSKKKKKK-OH”, for which, in data set [1], the half-life at 1000 ng/ml is 33.9 h. In addition, the K on Albumin is given as 12.1. Besides, the EC50 in data set [3] was found to be 0.31 nM. Besides, the result in the data set with Mus musculus [4] was inactive.
The like results for “H-HGEGTYTNDVTEYLEEEAA[ξK]([γGlu-Ahx-Glycoloyl(O-gemfibrozoyl)])EFIEWLIKGKPSSGAPPSKKKKKK-OH” were, in that order, 16.3 h, 6.4, 0.053 nM and “Active”.
Take “H-HGEGTYTNDVTEYLEEEAA[ξK]([γGlu-X2])EFIEWLIKGKPSSGAPPSKKKKKK-OH”: the half-life at 1000 ng/ml in data set [1] is 29.5 h. On Albumin, the K turned out to be 11.2. For the same compound, the result in the data set with Mus musculus [2] and in the data set with Mus musculus [4] was Active. The EC50 in data set [3] amounted to 0.091 nM.

One may read the half-life as the time in which the quantity being followed falls by half. For orientation: EC50 means the concentration at which the effect is half-maximal. The term Tmax denotes the time from dosing to the highest level.
